Results on three compounds are retold here after patent publication US12612403B2, “Nitrogen-containing heterocyclic derivative inhibitor, and preparation method therefor and use thereof” (SHANGHAI HANSOH BIOMEDICAL CO., LTD., priority 2024, dated 2026).

Experiment [1] has as its system LDLR level in HepG2 cells. Put plainly: Effect on the LDLR level in HepG2 cells (ELISA). In kind it is cell-based, Human. Particulars: 48 hours, LDLR in lysate by ELISA. How it is done: 1. Experimental objective: To detect the effect of the compounds on the LDLR protein level.
2. […] A self-adhesive seal was applied, the plate was placed on a plate shaker at room temperature, gently shaken, uniformly mixed, and incubated for 2 hours. • 11) The plate was placed on the plate washer, the washing liquid was set to 350 μL per well, and the plate was washed 4 times repeatedly. • 12) 200 μL of Human LDLR conjugate was added, a self-adhesive seal was applied, and the plate was placed on the plate shaker, well mixed uniformly, and incubated for 2 hours. • 13) The plate was placed on the plate washer, the washing liquid was set to 350 μL per well, and the plate was washed 4 times repeatedly. • 14) 200 μL/well of Substrate solution was added, and the plate was placed in the dark, applied with a self-adhesive seal, placed on the plate shaker, well mixed uniformly, and incubated for 20 minutes. • 15) 50 μL/well of Stop solution was added and mixed uniformly over 20 min. • 16) The optical density (OD) value in each well was measured in sequence at a wavelength of 450 nm by the microplate reader.
3. Experimental data processing method: After the OD values were read by the microplate reader, the OD value of the 0-concentration standard in the standard group was subtracted from the OD values of the standards, control group, and samples to obtain the actual OD values for these wells. […]
Background: An ELISA detects its analyte on a solid surface through an enzyme-linked reagent.

The subject of experiment [2] is PCSK9 secreted by HepG2 cells. Kind of experiment: Effect on the concentration of PCSK9 secreted by HepG2 cells (ELISA). In kind it is cell-based. Particulars: Homo sapiens, 48 hours, PCSK9 in culture medium by ELISA. Summed up:
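HepG2 cells treated with compound for 48 h at 37° C., 5% CO2. Secreted PCSK9 in medium quantified by sandwich ELISA (HRP detection, OD 450 nm) against a 0–10 ng/mL standard curve. Inhibition relative to control; IC50 fitted from concentration–inhibition data.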

The next experiment concerns LDL-C. Particulars: combined with a statin; cited from earlier work.

Regarding `O=C1c2ncncc2CN1c1ccc(N[C@H]2CC[C@H](Nc3nc4cc(F)ccn4n3)C2)nc1` [Example 21, 6-(6-(((1S,3S)-3-((7-fluoro-[1,2,4]triazolo[1,5-a]pyridin-2-yl)amino)cyclopentyl)amino)pyridin-3-yl)-5,6-dihydro-7H-pyrrolo[3,4-d]pyrimidin-7-one], in experiment [1], the LDLR expression level came to 135%.
A word on the IC50: it is the point on the concentration scale where inhibition reaches its midpoint. As to `O=C1c2c(cccc2C(F)(F)F)CN1c1ccc(N[C@H]2CC[C@H](Nc3nc4cc(F)ccn4n3)C2)nc1` [Example 25], the LDLR expression level in experiment [1] was 132%. In experiment [2], this compound displayed a half-maximal inhibitory concentration (IC50) of 17.6 µM.
Consider `O=C1[C@H](CC[C@H](O)c2ccc(F)cc2)[C@@H](c2ccc(O)cc2)N1c1ccc(F)cc1` [Ezetimibe], for which the “reduce LDL-C” value with LDL-C is recorded as 15-20%.
